Target: T1, LPA1 (Homo sapiens, UniProt Q92633)
T1 construct: ProLink (PK) beta-galactosidase enzyme-fragment tag; host or cells: CHO-K1
Test: LPA1 calcium flux assay (LPA1 functional antagonist assay)
Assay type: cell-based
Details: PathHunter CHO-K1 EDG2 β-Arrestin cell line; calcium indicator dye; stimulated with EC80 concentration of LPA; FLIPR Tetra
Protocol: Following overnight culture, cells were loaded with calcium indicator dye from the HitHunter Calcium No WashPLUS Assay kit (Eurofins DiscoverX Corporation, Cat #93-0091) for 45 minutes at 37° C. […] After compound addition, assay plates were equilibrated to room temperature for 30 minutes. […] IC50 values were determined by Chemical and Biological Information System from ChemInnovation Software, Inc. The compounds of this invention were tested for their activity to inhibit LPA1 as determined in an LPA1 functional antagonist assay as described herein.

T1 sequence (Q92633 whole entry, the tested form may be a part): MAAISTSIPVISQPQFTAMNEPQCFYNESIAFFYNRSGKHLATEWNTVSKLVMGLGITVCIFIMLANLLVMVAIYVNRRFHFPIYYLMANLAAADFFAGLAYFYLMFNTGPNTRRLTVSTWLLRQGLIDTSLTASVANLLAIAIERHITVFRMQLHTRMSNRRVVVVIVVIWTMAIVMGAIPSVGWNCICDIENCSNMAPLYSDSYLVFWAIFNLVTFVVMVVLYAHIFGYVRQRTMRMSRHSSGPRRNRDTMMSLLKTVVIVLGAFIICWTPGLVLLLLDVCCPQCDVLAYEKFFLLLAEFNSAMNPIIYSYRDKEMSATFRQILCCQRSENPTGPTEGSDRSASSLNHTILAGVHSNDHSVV

| SMILES | IC50 [nM] |
| --- | --- |
| CCCc1cc(C)c(=O)n(Cc2c(-c3ccc(N4C[C@@H](CC(=O)O)CC(F)(F)C4)c(C)n3)nnn2C)c1 [Example 1, (S)-2-(5,5-difluoro-1-(2-methyl-6-(1-methyl-5-((3-methyl-2-oxo-5-propylpyridin-1(2H)-yl)methyl)-1H-1,2,3-triazol-4-yl)pyridin-3-yl)piperidin-3-yl)acetic acid] | 500 to 5000 |
| CCCc1ccc(=O)n(Cc2c(-c3ncc(CN4CC(C(=O)O)CC(F)(F)C4)c(CC)n3)cnn2C)c1 (single isomer, unassigned) [Example 160, (S) or (R)-1-((4-ethyl-2-(1-methyl-5-((2-oxo-5-propylpyridin-1(2H)-yl)methyl)-1H-pyrazol-4-yl)pyrimidin-5-yl)methyl)-5,5-difluoropiperidine-3-carboxylic acid] | 500 to 5000 |
| CCCN(C)C(=O)OCc1c(-c2ccc(N3CCC[C@H](CC(=O)O)C3)c(CC)n2)nnn1C [Example 145, (R)-2-(1-(2-ethyl-6-(1-methyl-5-(((methyl(propyl)carbamoyl)oxy)methyl)-1H-1,2,3-triazol-4-yl)pyridin-3-yl)piperidin-3-yl)acetic acid] | 500 to 5000 |
| CCCc1ccc(=O)n(Cc2c(-c3cc(F)c(N4CCCC(CC(=O)O)C4)c(C)n3)nnn2C)c1 (stereo not shown) [Example 47, 2-(1-(4-fluoro-2-methyl-6-(1-methyl-5-((2-oxo-5-propylpyridin-1(2H)-yl)methyl)-1H-1,2,3-triazol-4-yl)pyridin-3-yl)piperidin-3-yl)acetic acid] | > 5000 |
| CCCc1ccnn(Cc2c(-c3ccc(N4C[C@@H](CC(=O)O)CC(F)(F)C4)c(C)n3)nnn2C)c1=O [Example 32, (S)-2-(5,5-difluoro-1-(2-methyl-6-(1-methyl-5-((6-0xo-5-propylpyridazin-1(6H)-yl)methyl)-1H-1,2,3-triazol-4-yl)pyridin-3-yl)piperidin-3-yl)acetic acid] | 500 to 5000 |
| CCc1nc(-c2nnn(C)c2Cn2ccc(CC3CC3)cc2=O)ccc1N1C[C@@H](CC(=O)O)CC(F)(F)C1 [Example 9, (S)-2-(1-(6-(5-((4-(cyclopropyImethyl)-2-oxopyridin-1(2H)-yl)methyl)-1-methyl-1H-1,2,3-triazol-4-yl)-2-ethylpyridin-3-yl)-5,5-difluoropiperidin-3-yl)acetic acid] | > 5000 |
| CCc1nc(-c2nnn(C)c2COc2cc(-n3ccnn3)ncn2)ccc1N1CCC[C@H](CC(=O)O)C1 [Example 97, 2-[(3R)-1-{2-ethyl-6-[1-methyl-5-({[6-(1H-1,2,3-triazol-1-yl)pyrimidin-4-yl]oxy}methyl)-1H-1,2,3-triazol-4-yl]pyridin-3-yl}piperidin-3-yl]acetic acid] | 100 to 500 |
| Cc1nc(-c2nnn(C)c2CN2C[C@@H](CC3CC3)N(C)C2=O)ccc1N1C[C@@H](CC(=O)O)CC(F)(F)C1 [Example 62, 2-((S)-1-(6-(5-(((R)-4-(cyclopropylmethyl)-3-methyl-2-oxoimidazolidin-1-yl)methyl)-1-methyl-1H-1,2,3-triazol-4-yl)-2-methylpyridin-3-yl)-5,5-difluoropiperidin-3-yl)acetic acid] | 500 to 5000 |
| Cc1nc(-c2nnn(C)c2COc2nccc(C(C)C)n2)ccc1N1C[C@@H](CC(=O)O)CC(F)(F)C1 [Example 77, (S)-2-(5,5-difluoro-1-(6-(5-(((4-isopropylpyrimidin-2-yl)oxy)methyl)-1-methyl-1H-1,2,3-triazol-4-yl)-2-methylpyridin-3-yl)piperidin-3-yl)acetic acid] | 100 to 500 |
| CCc1nc(-c2nnn(C)c2COC(=O)N(C)CC2CC2)ccc1N1C[C@@H](CC(=O)O)CC(F)(F)C1 [Example 141, (S)-2-(1-(6-(5-((((cyclopropylmethyl)(methyl)carbamoyl)oxy)methyl)-1-methyl-1H-1,2,3-triazol-4-yl)-2-ethylpyridin-3-yl)-5,5-difluoropiperidin-3-yl)acetic acid] | 100 to 500 |

The next lines start with the values.

| IC50 [nM] | SMILES |
| --- | --- |
| 100 to 500 | CCc1nc(-c2nnn(C)c2CNc2nccc(C3CCC3)n2)ccc1CN1CC(C(=O)O)CC(F)(F)C1 (single isomer, unassigned) [Example 163, (R) or (S)-1-((6-(5-(((4-cyclobutylpyrimidin-2-yl)amino)methyl)-1-methyl-1H-1,2,3-triazol-4-yl)-2-ethylpyridin-3-yl)methyl)-5,5-difluoropiperidine-3-carboxylic acid] |
| < 100 | Cc1nc(-c2cnn(C)c2COc2cc(-n3cccn3)ncn2)ccc1N1C[C@@H](CC(=O)O)CC(F)(F)C1 [Example 89, (S)-2-(1-(6-(5-(((6-(1H-pyrazol-1-yl)pyrimidin-4-yl)oxy)methyl)-1-methyl-1H-pyrazol-4-yl)-2-methylpyridin-3-yl)-5,5-difluoropiperidin-3-yl)acetic acid] |
| < 100 | Cc1nc(-c2nnn(C)c2COc2nccc(-n3cccn3)n2)ccc1N1CCC[C@H](CC(=O)O)C1 [Example 102, (R)-2-(1-(6-(5-(((4-(1H-pyrazol-1-yl)pyrimidin-2-yl)oxy)methyl)-1-methyl-1H-1,2,3-triazol-4-yl)-2-methylpyridin-3-yl)piperidin-3-yl)acetic acid] |
| < 100 | CCc1nc(-c2nnn(C)c2Cn2cc(C3CC3)ccc2=O)ccc1N1C[C@@H](CC(=O)O)CC(F)(F)C1 [Example 15, (S)-2-(1-(6-(5-((5-cyclopropyl-2-oxopyridin-1(2H)-yl)methyl)-1-methyl-1H-1,2,3-triazol-4-yl)-2-ethylpyridin-3-yl)-5,5-difluoropiperidin-3-yl)acetic acid] |
| < 100 | CCc1nc(-c2nnn(C)c2Cn2ncc(CC3CC3)n2)ccc1N1C[C@@H](CC(=O)O)CC(F)(F)C1 [Example 130, (S)-2-(1-(6-(5-((4-(cyclopropylmethyl)-2H-1,2,3-triazol-2-yl)methyl)-1-methyl-1H-1,2,3-triazol-4-yl)-2-ethylpyridin-3-yl)-5,5-difluoropiperidin-3-yl)acetic acid] |
| < 100 | CCc1nc(-c2nnn(C)c2COc2cc(-n3cccn3)ncn2)ccc1N1CCC[C@H](CC(=O)O)C1 [Example 82, (R)-2-(1-(6-(5-(((6-(1H-pyrazol-1-yl)pyrimidin-4-yl)oxy)methyl)-1-methyl-1H-1,2,3-triazol-4-yl)-2-ethylpyridin-3-yl)piperidin-3-yl)acetic acid] |
| 100 to 500 | CCCc1cn(Cc2c(-c3ccc(N4C[C@@H](CC(=O)O)CC(F)(F)C4)c(CC)n3)nnn2C)c(=O)cn1 [Example 29, (S)-2-(1-(2-ethyl-6-(1-methyl-5-((2-oxo-5-propylpyrazin-1(2H)-yl)methyl)-1H-1,2,3-triazol-4-yl)pyridin-3-yl)-5,5-difluoropiperidin-3-yl)acetic acid] |
| < 100 | CCc1nc(-c2nnn(C)c2COC(=O)N(C)C2CCC2)ccc1N1C[C@@H](CC(=O)O)CC(F)(F)C1 [Example 143, (S)-2-(1-(6-(5-(((cyclobutyl(methyl)carbamoyl)oxy)methyl)-1-methyl-1H-1,2,3-triazol-4-yl)-2-ethylpyridin-3-yl)-5,5-difluoropiperidin-3-yl)acetic acid] |
| < 100 | CCc1nc(-c2nnn(C)c2Cn2cc(C(C)C)ccc2=O)ccc1N1C[C@@H](CC(=O)O)CC(F)(F)C1 [Example 16, (S)-2-(1-(2-ethyl-6-(5-((5-isopropyl-2-oxopyridin-1(2H)-yl)methyl)-1-methyl-1H-1,2,3-triazol-4-yl)pyridin-3-yl)-5,5-difluoropiperidin-3-yl)acetic acid] |

Source: patent US12780800B1, “Triazole-pyridinyl substituted azacyclohexyl acetic acid compounds as LPA receptor antagonists” (Viva Star Biosciences Limited, priority 2021, dated 2022)
